Data published in ChEMBL document CHEMBL1201862, “PubChem BioAssay data set” (2004).
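Exposure lasted 48 hours, with cells grown in 96-well plates and compounds tested at five concentrations. At the GI50, growth is halved.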 The source made the active and inactive calls. Rule as the data show it: active = GI50 up to about 1.1 µM and inactive = higher.

How the values were obtained:
Assay in all cases: NCI tumour cell line growth inhibition, 48 h
[1] = system: COLO 205
[2] = system: OVCAR-8
[3] = system: U-251
[4] = system: NCI-H226
[5] = system: NCI-H522
[6] = system: CCRF-CEM
[7] = system: CAKI-1
[8] = system: 786-0
[9] = system: Hs-578T
[10] = system: NCI/ADR-RES
[11] = system: M14
[12] = system: MCF7
[13] = system: A498
[14] = system: SK-MEL-28
[15] = system: RXF 393
[16] = system: Malme-3M
[17] = system: EKVX
[18] = system: SK-MEL-2
[19] = system: MOLT-4

Measured: GI50

COC(=O)C1Cc2ccc(O)c(O)c2CN1 (stereo not given)
inactive: [1] > 100 µM | [2] > 10 µM | [3] 17.4 µM | [4] > 100 µM | [5] > 100 µM | [6] 35 µM | [7] > 100 µM | [8] 17.5 µM | [9] 25.4 µM | [10] 22.1 µM | [11] 16.2 µM | [12] 17.1 µM | [13] > 100 µM | [14] 17.3 µM | [15] > 100 µM | [16] 32.1 µM | [17] > 100 µM | [18] 16.7 µM | [19] 25.1 µM

Cn1c(=O)c2[nH]c(C3CC(=O)CC(c4nc5c([nH]4)c(=O)n(C)c(=O)n5C)N3)nc2n(C)c1=O (stereo not given)
inactive: [1] 97.7 µM | [2] > 100 µM | [3] 91 µM | [4] > 100 µM | [5] > 100 µM | [6] 38.3 µM | [7] > 100 µM | [8] > 100 µM | [9] > 100 µM | [10] > 100 µM | [11] > 100 µM | [12] 71.3 µM | [13] > 100 µM | [14] > 100 µM | [15] > 100 µM | [16] > 100 µM | [17] > 100 µM | [18] > 100 µM | [19] 71.3 µM

CSc1ccc(NC(=S)NN(C)C)cc1
inactive: [1] > 10 µM | [2] > 10 µM | [3] > 10 µM | [4] > 10 µM | [5] > 10 µM | [6] > 10 µM | [7] > 10 µM | [8] > 10 µM | [9] > 10 µM | [10] > 10 µM | [11] > 10 µM | [12] > 10 µM | [13] > 10 µM | [14] > 10 µM | [15] > 10 µM | [16] > 10 µM | [17] > 10 µM | [18] > 10 µM | [19] > 10 µM

CS[C@]12C(=O)C[C@@]3(C)[C@@H](CC[C@]3(O)C(=O)CO)[C@@H]1CCC1=CC(=O)CC[C@@]12C
inactive: [1] > 100 µM | [2] > 100 µM | [3] > 100 µM | [4] > 100 µM | [5] 47.9 µM | [6] 42.8 µM | [7] > 100 µM | [8] > 100 µM | [9] > 100 µM | [10] > 100 µM | [11] 46 µM | [12] > 100 µM | [13] > 100 µM | [14] > 100 µM | [15] > 100 µM | [16] > 100 µM | [17] > 100 µM | [18] > 100 µM | [19] 49.8 µM

COc1cc(OC)c2nc(C)c(CCCl)c(Cl)c2c1
inactive: [1] > 100 µM | [2] > 100 µM | [3] > 100 µM | [4] > 100 µM | [5] > 100 µM | [6] > 100 µM | [7] > 100 µM | [8] > 100 µM | [9] > 100 µM | [10] > 100 µM | [11] > 100 µM | [12] > 100 µM | [13] > 100 µM | [14] > 100 µM | [15] > 100 µM | [16] > 100 µM | [17] > 100 µM | [18] > 100 µM | [19] > 100 µM

O=c1cc(-c2ccccc2)oc2c1ccc1nc3ccccc3c(O)c12
inactive: [1] > 100 µM | [2] 80.5 µM | [3] 57.3 µM | [4] > 100 µM | [5] 39.9 µM | [6] 54.6 µM | [7] 60.7 µM | [8] 42 µM | [9] 59.4 µM | [10] 42.4 µM | [11] > 100 µM | [12] 36.4 µM | [13] 27.5 µM | [14] > 100 µM | [15] 31.6 µM | [16] > 100 µM | [17] > 100 µM | [18] > 100 µM | [19] 57.4 µM

OC(Cc1cnnc2ccccc12)C(Cl)(Cl)Cl (stereo not given)
inactive: [1] > 10 µM | [2] > 10 µM | [3] > 10 µM | [4] > 10 µM | [5] > 10 µM | [6] > 10 µM | [7] > 10 µM | [8] > 10 µM | [9] > 10 µM | [10] > 10 µM | [11] > 10 µM | [12] > 10 µM | [13] > 10 µM | [14] > 10 µM | [15] > 10 µM | [16] > 10 µM | [17] > 10 µM | [18] > 10 µM | [19] > 10 µM

O=[N+]([O-])c1cc(/C=N/C23CC4CC(CC(C4)C2)C3)ccc1Cl
inactive: [1] 42.6 µM | [2] 25.1 µM | [3] 18.7 µM | [4] 51.1 µM | [5] 13.4 µM | [6] 2.82 µM | [7] 6.71 µM | [8] 19.8 µM | [9] 38.8 µM | [10] 26.3 µM | [11] 12.3 µM | [12] 9.02 µM | [13] > 100 µM | [14] 18.1 µM | [15] 19.2 µM | [16] 20.9 µM | [17] 29.9 µM | [18] 20.5 µM | [19] 8.73 µM

Nc1ccn(CC(O)c2cc3ccccc3[nH]2)c(=O)n1 (stereo not given)
inactive: [1] > 100 µM | [2] > 100 µM | [3] > 100 µM | [4] > 100 µM | [5] > 100 µM | [6] > 100 µM | [7] > 100 µM | [8] > 100 µM | [9] > 100 µM | [10] > 100 µM | [11] > 100 µM | [12] > 100 µM | [13] > 100 µM | [14] > 100 µM | [15] > 100 µM | [16] > 100 µM | [17] > 100 µM | [18] > 100 µM | [19] > 100 µM

CN1CC[N+](C)=C1c1ccccc1
inactive: [1] > 100 µM | [2] > 100 µM | [3] > 100 µM | [4] > 100 µM | [5] > 100 µM | [6] > 100 µM | [7] > 100 µM | [8] > 100 µM | [9] > 100 µM | [10] > 100 µM | [11] > 100 µM | [12] > 100 µM | [13] > 100 µM | [14] > 100 µM | [15] > 100 µM | [16] > 100 µM | [17] > 100 µM | [18] > 100 µM | [19] > 100 µM
